One may read the melting point as the temperature, or range, at which the solid turns liquid. Take `Cc1cc(OCC2CO2)c2c3c(c(=O)oc2c1)CCCC3` (stereo unspecified): the melting point lay in the range of 164 to 165 °C.

The compound `CN(C)CCCNC(=O)c1c2ccc(Cl)cc2c(-c2ccccc2)n1C` gave a melting point of 146 to 148 °C.

With `COc1cccc(OC(=O)/C=C/c2ccc(C(C)(C)C)cc2)c1`, the melting point was 83 °C.

For `CC1=CC(c2cccc(Cl)c2)C=C(CN2C(=O)c3ccccc3C2=O)N1` (stereo unspecified), the melting point was in the range of 128 to 130 °C.

Take `CNC(=O)N1N=C(c2ccc(N)c(C)c2)c2cc(Cl)ccc2C=C1C`: the melting point lay within 210 to 212 °C.

In turn, `CCOC(=O)c1ccc(C(=O)CBr)cc1` came in with a melting point of 67 to 68.5 °C.

As for `Cc1ccccc1Nc1nc(N(C)c2ccccc2)c2sccc2n1`, the melting point fell in the range of 198 to 200 °C.

For `O=c1[nH]cc2c(c1-c1ccc(O)cc1)Nc1ccccc1S2`, the melting point is above 300 °C.

As to `Cc1ccc(C(C)(C)C)cc1P(=O)(O)c1cc(C(C)(C)C)ccc1C`, the melting point lay within 182 to 183 °C.

On to `N#Cc1cccc2c1CC(=NN)c1ccccc1S2`, for which the melting point fell in the range of 175 to 177 °C.

In the case of `Cc1[nH]cnc1CSCCN(C)C(N)=S`, the melting point fell in the range of 149 to 151 °C.

Compound `N=C(NS(=O)(=O)C=Cc1ccccc1)c1ccccc1` had a melting point of 192 to 194 °C.

As to `O=[N+]([O-])c1ccc(CO)c(Cl)c1`, the melting point was in the range of 62 to 64 °C.

As for `Cc1nc(OC(C)C(=O)NC(C)(C#N)C(C)(C)C)c(Cl)c(C(F)(F)F)n1` (stereo unspecified), the melting point lay in the range of 137 to 139 °C.

The compound `CCOC(=O)Cc1csc(NS(C)(=O)=O)n1` displayed a melting point of 207 to 208 °C.

In turn, `O=C(NCCO)C(Oc1ccc(F)c(C(F)(F)F)c1)c1ccc(Cl)cc1` (stereo unspecified) yielded a melting point of 95 °C.

`COC(=O)COc1c(OC)cc(C(=O)C#Cc2cc(-c3cccs3)c(OC)cc2OC)cc1OC`: the melting point fell in the range of 153 to 155 °C.

`N#Cc1cc([N+](=O)[O-])ccc1OC1CCCCC1` showed a melting point of 97 to 98 °C.

Turning to `Cc1ccc(Sc2ccccc2CN(C)C)c([N+](=O)[O-])c1`, the melting point was in the range of 109 to 111 °C.

Take `N#Cc1cnc2c(sc3c([N+](=O)[O-])cccc32)c1Nc1cccc(Br)c1`: the melting point fell in the range of 288 to 290 °C.

For `Cc1ccc(N2CN(CCN(C)C)CN(C)C2=S)c(C)c1`, the melting point was in the range of 65 to 70 °C.

Take `Cc1ccc(N=c2ccn3ccccc3c2)cc1C`: the melting point lay in the range of 185 to 187 °C.

Consider `Cc1ccc2c(c1)NC(=O)CO2`, for which the melting point was in the range of 204 to 205 °C.

In turn, `COCCc1nc2c(N)nc3ccc(CCC(=O)N(C)C)cc3c2n1CCCN1CCCC1=O` gave a melting point of 184 to 186 °C.

`CCC1c2ccc(F)n2-c2ccc(F)cc2N1S(=O)(=O)c1ccc(O)c(C)c1` (stereo unspecified) yielded a melting point of 149 to 151 °C.

In turn, `N#Cc1nn(-c2c(Cl)cc(C(F)(F)F)cc2Cl)c(N)c1-c1ccc(Br)s1` gave a melting point of 214 °C.

`c1cc(Cc2cc3ccccc3[nH]2)cc(-c2cc3ccccc3[nH]2)c1` yielded a melting point of 193 to 194 °C.

`CCCCc1c2c(nn1-c1ccccc1)c(Cl)nc1ccccc12` showed a melting point of 239 to 243 °C.

Turning to `NC(=O)COc1cc(C(F)(F)F)cc(C(F)(F)F)c1`, the melting point was in the range of 139 to 141 °C.

The compound `CCCCc1nn(-c2cc([N+](=O)[O-])ccc2Cl)c(C(N)=O)c1Cc1ccc(Br)cc1F` showed a melting point of 145 to 147 °C.

`COc1ccc(CCNC(=O)COc2ccc(C[C@H](OC)C(=O)O)cc2)cc1` gave a melting point of 97 to 98 °C.

With `O=C1CCCCc2cc(OCC3CCCCC3)ccc21`, the melting point lay in the range of 86 to 88 °C.

For the compound `COc1c(C)cnc(Cn2cc(C#CCCCN3CCN(C)CC3)c3c(Cl)nc(N)nc32)c1C`, the melting point fell in the range of 160 to 162 °C.

Take `O=C(O)Cn1c(=O)[nH][nH]c1=O`: the melting point was 220 to 223 °C.

For the compound `CN(c1ccc2c(c1)S(=O)(=O)C=C(c1c(O)c3cc(F)ccc3n(CCC3CC3)c1=O)N2)S(C)(=O)=O`, the melting point was 208 to 212 °C.

For `Cc1ccc(Sc2nc(C(N)=O)nc3c(C)csc23)cc1`, the melting point lay within 243 to 246 °C.

Turning to `Cc1ccc(NC(=O)N2CC(Oc3cccc(C(F)(F)F)c3)C2)cc1`, the melting point is 191 to 192 °C.

`O=C(O)COc1cccc(CCc2nc(-c3ccccc3)c(-c3ccccc3)s2)c1` showed a melting point of 118 to 120 °C.

In the case of `C=C1CC(C=CC(O)CCCCC)C(O)(Cc2cccc(OCc3ccccc3)c2)C1` (stereo unspecified), the melting point stood at 58 °C.

In the case of `COC(=O)Cc1ccc(CNC(=O)C2Cc3ccccc3N2S(=O)(=O)c2ccc(-c3cccc(Cl)c3)cc2)cc1` (stereo unspecified), the melting point turned out to be 70 °C.

Turning to `CC(C)C1C(=O)N(c2ccc(N=Nc3ccc(N(C)C)cc3)cc2)C(=S)N1C` (stereo unspecified), the melting point lay within 164 to 169 °C.

On to `CCOC(=O)N1CCOC(c2ccccc2)(c2ccccc2)CC1`, for which the melting point lay in the range of 122 to 123 °C.

`Nc1nc(NC(CO)CO)c2ncn(C3C=CC(CO)C3)c2n1` (stereo unspecified) returned a melting point of 160 to 162 °C.

On to `Cc1cc(O)cc(Cl)c1Cl`, for which the melting point was 98 to 100 °C.

Regarding `c1ccc(N2CCNc3nc4ccccc4n3CC2)cc1`, the melting point fell in the range of 156 to 158 °C.

With `O=C1CN2Cc3cc(OCCCCCCO)ccc3N=C2N1`, the melting point lay in the range of 236 to 237 °C.

For the compound `COC(=O)c1ccccc1-n1c(CCl)nc2ccc(F)cc2c1=O`, the melting point lay within 213 to 215 °C.

Compound `CNC1(c2ccccc2Cl)C(=O)Nc2ccc(F)cc21` (stereo unspecified) came in with a melting point of 188 to 189 °C.

`Cc1cc(I)cc(C=O)c1N` registered a melting point of 134 °C.

`O=C(NC(=O)c1c(F)cccc1F)Nc1ccc(F)c(C(F)(F)F)c1Cl` gave a melting point of 214 °C.

`Oc1ccccc1-c1ccccc1-c1cccc2[pH]c3ccccc3c12` (stereo unspecified) gave a melting point of 152 to 155 °C.

The compound `CCCCCOc1cccc(N)c1C#N` had a melting point of 70 to 73 °C.

On to `COCc1nc(C(=O)OC)c(C(=O)OC)n1Cc1ccc([N+](=O)[O-])cc1`, for which the melting point lay within 107 to 110 °C.

Regarding `CCOC(=O)NC(=O)C(C#N)=CNc1ccc(Cl)cc1`, the melting point lay in the range of 177 to 183 °C.

`CC(=O)CC(=O)c1cc(Cl)c(Cl)cc1O` showed a melting point of 134 to 135 °C.

In the case of `CN(C)Cc1ccccc1Sc1ccc(F)cc1N`, the melting point is 56 to 58 °C.

In the case of `CC(C)C[C@H](NC(=O)OC(C)(C)C)[C@@H](O)C[C@H](c1ccccc1)C(C)C`, the melting point was 95 to 96 °C.

The compound `CCOC(=O)C(C)OCc1cc2nc(C(F)(F)F)ccc2n1S(=O)(=O)c1ccc2ncsc2c1` (stereo unspecified) registered a melting point of 96 °C.

In turn, `CC(C)(C)[Si](C)(C)N1C(=O)[C@@H](N2C(=O)c3ccccc3C2=O)[C@H]1/C=C/c1ccccc1` (relative stereo) had a melting point of 167 to 168 °C.

Regarding `OCc1cccnc1Nc1ccccc1`, the melting point is 180 to 182 °C.

`OCCNCCNc1nnc(NCCNCCO)c2cc3ccccc3cc12` yielded a melting point of 129 to 131 °C.

`CCc1cccc(C(O)CC)c1NC(=O)CC1c2ccccc2Oc2ccccc21` (stereo unspecified): the melting point was in the range of 167 to 168 °C.

`O=C(O)CCCC(CCCNS(=O)(=O)c1ccc(Cl)cc1)CCc1cccnc1` (stereo unspecified) returned a melting point of 83 to 85 °C.

In turn, `Cc1ccc(C(=O)NC#N)cc1` came in with a melting point of 140 to 142 °C.

In turn, `CCCCNS(=O)(=O)c1ccc(N2CCC(=O)CC2)cc1` registered a melting point of 79 to 82 °C.

For `O=C1CC2(CCCC2)C(O)C(=O)N1CCCCN1CCN(c2ncccn2)CC1` (stereo unspecified), the melting point worked out at 110 °C.

In the case of `CS(=O)(=O)N1CCN(c2cc(Cl)ncn2)CC1`, the melting point fell in the range of 200 to 202 °C.

Regarding `COC(=O)CNc1ccc(CCNC(=O)c2ccc(C#N)cc2)cc1`, the melting point lay within 161 to 162 °C.

On to `CCN1c2ncccc2C(=NC#N)Nc2c(C)cc(C)nc21`, for which the melting point was 230 to 233 °C.

As for `CCOC(=O)c1cc2cccc(N(C)C(=O)c3cccs3)c2[nH]1`, the melting point was determined as 193 °C.

Compound `Nc1cccc(-c2ccc(CCN3CCN(C(=O)C4CCCC4)CC3)cc2)n1` returned a melting point of 185 to 187 °C.

For the compound `CC(=NOCCOc1ccc(C(=O)O)c(OC(=O)c2ccc(-c3ccccc3)cc2)c1)c1ccccc1`, the melting point lay in the range of 158 to 159 °C.

In turn, `CC=CC(=O)Nc1n[nH]c2ccc(C)cc12` yielded a melting point of 218 °C.

Compound `CN(Cc1cc(C(F)(F)F)cc(C(F)(F)F)c1)C(=O)c1ncc2ccccc2c1-c1ccccc1` had a melting point of 139 to 140 °C.

On to `FC(F)(F)CNc1ccc2c(c1)N1CCCN=C1S2`, for which the melting point worked out at 187 °C.

Compound `COc1ccc(C2(O)CCN(CC3CN(c4ccccc4)C(=O)O3)CC2)cc1` (stereo unspecified) registered a melting point of 121 to 122 °C.

Consider `Cc1nc(CN(C)C)n2c1CN=C(c1ccccc1Cl)c1cc(Cl)ccc1-2`, for which the melting point lay within 185 to 186 °C.

In turn, `COC(=O)CC[C@@H](NC(=O)[C@@H](NC(=O)OC(C)(C)C)[C@@H](C)OCc1ccccc1)C(N)=O` had a melting point of 131 to 132 °C.

`Cc1cc(C)n2nc(SCc3ccccc3)nc2c1` gave a melting point of 69 to 70 °C.

Turning to `CSc1ccc2cc(C(=O)c3ccccc3)cc(CCNC(C)=O)c2c1`, the melting point lay in the range of 126 to 128 °C.

For the compound `CSc1ccc(-c2ccccc2)c([N+](=O)[O-])c1`, the melting point is 51 to 52 °C.

Compound `c1ccc(-c2cc(NC3=NCCN3)cc3[nH]cnc23)cc1` yielded a melting point of 149 to 151 °C.

In turn, `O=C1N(C23CC4CC(CC(C4)C2)C3)CCC1(Cc1ccncc1)Cc1ccncc1` yielded a melting point of 164 to 165 °C.

For the compound `Cc1nc2c(O)cccc2c(=O)n1C1CCC(=O)NC1=O` (stereo unspecified), the melting point lay within 266 to 268 °C.

Turning to `CC(C)N1CCN(c2ccc(-c3[nH]nc4c3C(=O)c3c(NC(=O)NN5CCOCC5)cccc3-4)cc2)CC1`, the melting point came out at 253 °C.

With `CC(C)(C)OC(=O)C[C@H](NS(=O)(=O)c1ccc2ccccc2c1)C(=O)O`, the melting point was determined as 141 °C.

In turn, `CCOC(=O)CC(=O)Nc1ccc([N+](=O)[O-])cc1` gave a melting point of 102 to 103 °C.

Regarding `COc1cc(CC(=O)Nc2ccc(C(C)CC(=O)O)cc2)ccc1NC(=O)N1CCc2ccccc21` (stereo unspecified), the melting point is 152 to 154 °C.

`CCOC(=O)c1ccccc1C(=O)c1cccc(NC(=O)c2ccn3c2CSC3c2cccnc2)c1` (stereo unspecified) gave a melting point of 150 °C.

The compound `Cc1cccc2c1-n1nnnc1SC2` had a melting point of 174 °C.

As to `COC(=O)c1sc(C(C)C)cc1NC(=O)Nc1ccccc1`, the melting point is 108 to 110 °C.

Source of the values: a melting point compilation (Tetko et al.; mined from patent text by program, amines drawn as free bases though some values may be those of a salt).
